Data reported in patent US12515963B2, “Nanoparticle composition and method of inhibiting ovarian cancer cell viability” (priority 2019, dated 2026).
Like-named read-outs stand apart in the source and are kept apart here.

Assays:
Bacillus subtilis = assay: Minimum inhibitory concentration (MIC); type: cell-based
Protocol: (§1) Minimum inhibitory concentration (MIC) was determined to assess the antibacterial potential of the compositions of Example 6 in microorganisms. MIC is the lowest concentration of a drug which prevents visible growth of bacterium. The tested panel of microorganisms represented a very broad spectrum of antibiotic resistant microorganisms. Sample 4-1 and Tetracycline (as control) were tested against multidrug-resistant Salmonella typhimurium DT 104. Sample 4-2 and Amoxicillin (as control) were tested against Bacillus subtilis. Sample 4-3 and Vancomycin (as control) were tested against vancomycin resistant Enterococcus type Van-A and also vancomycin resistant Leuconostoc mesenteroides VKPM B-4177. In all test conditions monometallic silver nanoparticle composition with Miramistin® alone (obtained using a process known in the art) were used as a control. This composition is referred to as “Ag-NPs-Myramistin in Table 8.

[1] = tested on: CRL-2945 (human ovarian carcinoma); assay: Cancer cell viability (cytotoxic effect); type: cell-based; details: CRL-2945, Doxorubicin column
Protocol: (§2) The cytotoxic effects of Samples 1-1 and 1-3 on cancer cells were studied in HCT-116 (human colon cancer cell lines), CRL-2945 (human ovarian carcinoma) and U-87 (human glioblastoma). Cell viability was analyzed in cells treated with different concentrations of Sample 1-1 and Sample 1-3. Nanoparticle samples were able to reduce viability in a dose-dependent manner. […] The doses were used to calculate IC50 value against the control cells (Table 3).
(§3) The cytotoxic effects of Samples 6-1, 6-2, 7-1 and 7-2, glucosamine and Metformin on cancer cells were studied in CRL-2945 (human ovarian carcinoma) and U-87 (human glioblastoma). The doxorubicin resistant CRL-2945 and U-87 cells were generated by exposing the cells to the cytotoxic drug at incrementally increasing concentrations. In this way, resistant sublines were obtained (CRL-2945-R and U-87-R). The cell viability was analyzed in cells treated with different concentrations of Sample 6-1, Sample 6-2, Sample 7-1 and Sample 7-2. The samples were able to reduce viability in a dose-dependent manner. […] The doses were used to calculate IC50 values against the control cells (Table 12).

[2] = tested on: U-87 (human glioblastoma); assay: Cancer cell viability (cytotoxic effect); type: cell-based; details: U-87, Doxorubicin column
Protocol: as §2, §3

CRL-2945-R = assay: Cancer cell viability (cytotoxic effect), doxorubicin resistant subline; type: cell-based; details: Homo sapiens, Doxorubicin column
Protocol: as §3

U-87-R = assay: as above; type: cell-based; details: Homo sapiens, Doxorubicin column
Protocol: as §3

[3] = tested on: CRL-2945 and U-87 cancer cells; assay: Activity of the drugs alone on cancer cells; type: cell-based, human; details: drug alone, data not shown
Protocol: as §3
Higher toxicity of Sample 6-2 can be explained by the fact that Sample 6-2 bears very toxic doxorubicin, which is delivered into the cells with nanoparticles. […] Cancer cells CRL-2945-R and U-87-R were cultured in serum-free media to enrich the populations with cancer stem cells. Thus, enriched cells were tested with the samples.

[4] = tested on: vancomycin resistant Leuconostoc mesenteroides VKPM B-4177; assay: Minimum inhibitory concentration (MIC); type: cell-based
Protocol: (§4) Minimum inhibitory concentration (MIC) was determined to assess antibacterial and antifungal activities of the samples in microorganisms. MIC is the lowest concentration of a drug, which prevents visible growth of bacterium. The tested panel of microorganisms represent a very broad spectrum of microorganisms, including Gram-positive and Gram-negative strains (Staphylococcus aureus vs. Escherichia coli), methicillin resistant strain INA 00761 (Staphylococcus aureus), vancomycin resistant strain VKPM B-4177 (Leuconostoc mesenteroides), fungi strain INA 00760 (Aspergillus niger), and yeast strain RIA259 (Saccharomyces cerevisiae).
as §1

[5] = tested on: Aspergillus niger INA 00760; assay: Minimum inhibitory concentration (MIC); type: cell-based
Protocol: as §4

[6] = tested on: Escherichia coli ATCC 25922; assay: Minimum inhibitory concentration (MIC); type: cell-based
Protocol: as §4

[7] = tested on: Saccharomyces cerevisiae RIA 259; assay: Minimum inhibitory concentration (MIC); type: cell-based
Protocol: as §4

[8] = tested on: Staphylococcus aureus FDA 209P; assay: Minimum inhibitory concentration (MIC); type: cell-based
Protocol: as §4

[9] = tested on: methicillin resistant Staphylococcus aureus INA 00761; assay: Minimum inhibitory concentration (MIC); type: cell-based
Protocol: as §4

[10] = tested on: multidrug-resistant Salmonella typhimurium DT 104; assay: Minimum inhibitory concentration (MIC); type: cell-based; details: Salmonella enterica
Protocol: as §1

## CC1(C)S[C@@H]2[C@H](NC(=O)[C@H](N)c3ccc(O)cc3)C(=O)N2[C@H]1C(=O)O [Amoxicillin]
Bacillus subtilis
  MIC: > 128 µg/mL

## COc1cccc2c1C(=O)c1c(O)c3c(c(O)c1C2=O)C[C@@](O)(C(=O)CO)C[C@@H]3O[C@H]1C[C@H](N)[C@H](O)[C@H](C)O1 [Doxorubicin]
[1]
  IC50: 130 nM
[2]
  IC50: 80 nM
CRL-2945-R
  IC50: 280 nM
U-87-R
  IC50: 1200 nM

## N[C@H]1C(O)O[C@H](CO)[C@@H](O)[C@@H]1O (stereo partly drawn) [Glucosamine]
[3]
  activity alone on cancer cells: did not show any significant activity

## CN(C)C(=N)N=C(N)N [Metformin]
[3]
  activity alone on cancer cells: did not show any significant activity

## CCCCCCCCCCCCCC(=O)NCCC[N+](C)(C)Cc1ccccc1.[Cl-] [Miramistin ®, benzyl-dimethyl-[3-(tetradecanoylamino)propyl]ammonium chloride]
[4]; Leuconostoc mesenteroides VKPM B-4177, read-out: MIC
  MIC: 10 µg/mL
[5]; INA00760, read-out: MIC
  MIC: 20 µg/mL
[6]; ATCC25922, read-out: MIC
  MIC: 20 µg/mL
[7]; RIA259, read-out: MIC
  MIC: 20 µg/mL
[8]; FDA209P, read-out: MIC
  MIC: 5 µg/mL
[9]; read-out: MIC
  MIC: 10 µg/mL

## O=[N+]([O-])[O-].[Ag+] [Silver Nitrate, silver nitrate]
[4]; Leuconostoc mesenteroides VKPM B-4177
  MIC: 5 µg/mL
[5]
  MIC: 20 µg/mL
[6]
  MIC: 10 µg/mL
[7]
  MIC: 10 µg/mL
[8]
  MIC: 20 µg/mL
[9]
  MIC: 5 µg/mL

## CN(C)[C@@H]1C(O)=C(C(N)=O)C(=O)[C@@]2(O)C(O)=C3C(=O)c4c(O)cccc4[C@@](C)(O)[C@H]3C[C@@H]12 [Tetracycline]
[10]
  MIC: > 128 µg/mL

## CN[C@H](CC(C)C)C(=O)N[C@H]1C(=O)N[C@@H](CC(N)=O)C(=O)N[C@H]2C(=O)N[C@H]3C(=O)N[C@H](C(=O)N[C@H](C(=O)O)c4cc(O)cc(O)c4-c4cc3ccc4O)[C@H](O)c3ccc(c(Cl)c3)Oc3cc2cc(c3O[C@@H]2O[C@H](CO)[C@@H](O)[C@H](O)[C@H]2O[C@H]2C[C@](C)(N)[C@H](O)[C@H](C)O2)Oc2ccc(cc2Cl)[C@H]1O [Vancomycin]
[4]; Leuconostoc mesenteroides
  MIC: > 128 µg/mL
